According to EP4806904A1, “POLYPEPTIDE AND USE THEREOF” (Sichuan Gooddoctor Panxi Pharmaceutical Co. Ltd, priority 2023, dated 2026):
Where a SMILES comes first, the peptide text is derived from it. [ ]: non-standard residue; d: D form.

Columns and labels:
[1] = test system: Brain microvascular endothelial cells (BMECs) and brain microvascular smooth muscle cells (BMVSMCs); assay: In vitro angiogenesis assay, BMEC/BMVSMC co-culture on matrigel; assay type: cell-based, mouse; conditions: 0.1 mg/L, 48 h
Procedure: First, mouse brain microvascular pellets were obtained by differential centrifugation. Brain microvascular endothelial cells (BMECs) and brain microvascular smooth muscle cells (BMVSMCs) were isolated by digestion with collagenase II, respectively, and cultured in a cell incubator with 5% CO2 at 37°C . Cells at passages 3-6 in good growth condition and logarithmic growth phase were selected for the in vitro angiogenesis assay.
One night before the experiment, the high-concentration matrigel was transferred from a -20°C or -80°C refrigerator to a 4°C refrigerator and allowed to thaw slowly overnight in the 4°C refrigerator. Pipette tips required for the formal experiment were sterilized in advance and pre-cooled in a 4°C refrigerator for subsequent use.
On the day of the experiment, the matrigel was added to a 96-well plate 1 h in advance and placed in a 37°C cell incubator until it solidified. Subsequently, the cells were washed 2 times with 2 mL of PBS buffer, followed by digestion with 0.25% trypsin to obtain EC and VSMC pellets, respectively, and cell counting was performed. A uniform cell suspension containing 5×10^3 BMVSMCs and 1×10^3 BMECs per well was then seeded into the 96-well plate pre-coated with the matrigel, and cultured in a 37°C, 5% CO2 cell incubator for 3 days.
During the culture period, tube formation was observed daily. The medium was changed on day 4, followed by treatment with the polypeptide of the invention at 0.1 mg/L or VEGFA at 10/15/20 ng/L for 48 h, respectively.
On day 5, the cell nuclei and live cells were labeled with Hoechst 33342 and Calcein AM, respectively. High-content brightfield and fluorescence imaging were then performed using a high-content screening system. Finally, angiogenesis in each treatment group was analyzed using the Angiogenesis Analyzer plugin for ImageJ, and statistical analysis was carried out with GraphPad Prism 10.

[2] = test system: primary neural stem cells (NSCs); assay: Differentiation of primary neural stem cells, βIII-tubulin fluorescence and Neurite Outgrowth Assay; assay type: cell-based, SD rats; conditions: 100 µg/mL; for Longest neurite length / Neurite initiation points (branches) / Number of neurite terminals / Total neurite length / mean fluorescence intensity of the neuronal marker protein βIII-tubulin / Average fluorescence intensity / neurite outgrowth (total neurite length, maximum neurite length, neurite terminals, neurite initiation points): 4 days; for Longest neurite length / Neurite initiation points (branches) / Number of neurite terminals / Total neurite length / Average fluorescence intensity: significance vs blank control group; for mean fluorescence intensity of the neuronal marker protein βIII-tubulin: vs blank control group; for mean fluorescence intensity of the neuronal marker protein βIII-tubulin / neurite outgrowth (total neurite length, maximum neurite length, neurite terminals, neurite initiation points): in words; for Average fluorescence intensity: βIII-tubulin; for neurite outgrowth (total neurite length, maximum neurite length, neurite terminals, neurite initiation points): Neurite Outgrowth Assay
Procedure: This part of the experiment requires feeding male and female rats in advance, then extracting hippocampal neural stem cells from newborn SD rats within 24 h of birth, culturing them to P3 for identification, and then using them for experiments. • (1) Extraction and culture of primary neural stem cells (NSCs) • (2) NSCs that have been passaged to P3 and have good viability were seeded in differentiation medium (2% FBS+DMEM/F12 1:1 medium) in 48-well plates with a cell concentration of 5×10^4 cells/mL per well. After overnight culture for cell adherence, the cells were treated with drugs; • (3) Drug treatment was applied. The final concentration of the polypeptide of the invention was 100 µg/mL. Meanwhile, nerve growth factor (NGF, 50 ng/mL) was set as the positive control, and the cells were cultured in the incubator for another 4 days; • (4) Immunofluorescence staining (primary antibody βIII-tubulin) was performed after 4 days of treatment. The average fluorescence intensity of βIII-tubulin was analyzed and the Neurite Outgrowth Assay was performed using a high-content cell imaging analysis system.

[3] = significance vs blank control group

Compound	Branch length [1, 3]	Cell count [1, 3]	Number of intersections [1, 3]	Longest neurite length [2]	Neurite initiation points (branches) [2]	Number of neurite terminals [2]	Total neurite length [2]	mean fluorescence intensity of the neuronal marker protein βIII-tubulin [2]	neurite outgrowth (total neurite length, maximum neurite length, neurite terminals, neurite initiation points) [2]	also measured
H-LPAPG-OH [Compound 33, H-Leu-Pro-Ala-Pro-Gly-OH]	** (**p < 0.01)	** (**p < 0.01)	** (**p < 0.01)							angiogenesis-promoting effects ([1]; vs normal group, in words): exhibited angiogenesis-promoting effects
CC(C)C[C@H](NC(=O)[C@@H](NC(=O)CNC(=O)[C@@H]1CCCN1C(=O)[C@H](C)NC(=O)[C@H]1CCCN1C(=O)[C@H](CC(C)C)NC(=O)[C@H](C)N)[C@@H](C)O)C(=O)O [Compound 4, H-Ala-Leu-D-Pro-Ala-Pro-Gly-Thr-Leu-OH] (H-AL[dP]APGTL-OH)		* (*p < 0.05)		*** (***p < 0.001)	** (**p < 0.01)	** (**p < 0.01)	** (**p < 0.01)			cell proliferation ([1]; vs normal group, in words): only promoted cell proliferation
H-AKNQLPAPGTLQHFC-OH [Compound 24, H-Ala-Lys-Asn-Gln-Leu-Pro-Ala-Pro-Gly-Thr-Leu-Gln-His-Phe-Cys-OH]					* (*p < 0.05)			significant increase		Average fluorescence intensity [2]: * (*p < 0.05)
H-APGTL-OH [Compound 34, H-Ala-Pro-Gly-Thr-Leu-OH]	** (**p < 0.01)	** (**p < 0.01)	** (**p < 0.01)	* (*p < 0.05)	* (*p < 0.05)	** (**p < 0.01)	* (*p < 0.05)	significant increase	promote neurite outgrowth	differentiation of NSCs into neuronal cells ([2]; conclusion based on the results of the two analytical methods): promote the differentiation of NSCs into neuronal cells with stable effects; Average fluorescence intensity [2]: * (*p < 0.05); angiogenesis-promoting effects ([1]; vs normal group, in words): exhibited angiogenesis-promoting effects
H-ALPAP-OH [Compound 30, H-Ala-Leu-Pro-Ala-Pro-OH]	* (*p < 0.05)	** (**p < 0.01)		* (*p < 0.05)				significant increase	tendency to promote neurite outgrowth	Average fluorescence intensity [2]: *** (***p < 0.001)
H-PIASQHLNLAPAPGTI-OH [Compound 23, H-Pro-Ile-Ala-Ser-Gln-His-Leu-Asn-Leu-Ala-Pro-Ala-Pro-Gly-Thr-Ile-OH]						* (*p < 0.05)	* (*p < 0.05)	tendency to enhance	tendency to promote neurite outgrowth	
H-ALPAPGT-OH [Compound 39, H-Ala-Leu-Pro-Ala-Pro-Gly-Thr-OH]	** (**p < 0.01)	* (*p < 0.05)	** (**p < 0.01)							angiogenesis-promoting effects ([1]; vs normal group, in words): exhibited angiogenesis-promoting effects
H-PAPGT-OH [Compound 27, H-Pro-Ala-Pro-Gly-Thr-OH]				** (**p < 0.01)	** (**p < 0.01)	* (*p < 0.05)	* (*p < 0.05)		promote neurite outgrowth	
Ac-ALPAPGTL-OH [Compound 9, Ac-Ala-Leu-Pro-Ala-Pro-Gly-Thr-Leu-OH]	* (*p < 0.05)									Branch length ([1]; vs normal group, in words): promoting effects; number of junctions ([1]; vs normal group, in words): no significant effects
H-ALGAPGTL-OH [Compound 14, H-Ala-Leu-Gly-Ala-Pro-Gly-Thr-Leu-OH]		* (*p < 0.05)	* (*p < 0.05)							Branch length ([1]; vs normal group, in words): no significant effects; number of junctions ([1]; vs normal group, in words): promoting effects
H-LPAPGTL-OH [Compound 29, H-Leu-Pro-Ala-Pro-Gly-Thr-Leu-OH]								tendency to enhance		
